{"source": "ChEMBL document CHEMBL1149986", "about": "“Topical antiinflammatory dehydroabietylamine derivatives. IV” (Bioorg Med Chem Lett, 1993)", "key": {"Mus musculus [1]": {"tested_on": "Mus musculus", "assay": "Tested for its antiinflammatory activity in the tetradecanoyl phorbol acetate induced ear edema model (TPA Ear)", "format": "functional"}, "[2]": {"biological_target": "Phospholipase A2, major isoenzyme (Sus scrofa, UniProt P00592)", "sequence (P00592 whole entry)": "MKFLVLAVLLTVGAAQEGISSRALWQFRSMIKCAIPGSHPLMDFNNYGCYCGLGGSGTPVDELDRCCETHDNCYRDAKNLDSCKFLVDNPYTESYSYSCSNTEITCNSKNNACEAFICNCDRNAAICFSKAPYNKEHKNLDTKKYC", "assay": "Tested for its inhibitory activity against Phospholipase A2 (PLA2)", "design": "species or system Mus musculus"}, "Mus musculus [3]": {"tested_on": "Mus musculus", "assay": "Tested for its antiinflammatory activity in the arachidonic acid(AA) induced ear edema model", "format": "functional"}, "Mus musculus [4]": {"tested_on": "Mus musculus", "assay": "Tested for its antiinflammatory activity in the contact sensitive (CS) ear edema model", "format": "functional"}, "Cyclooxygenase": {"biological_target": "T1, Cyclooxygenase (Bos taurus, UniProt O62664+O62698)", "T1 sequence (O62664 whole entry)": "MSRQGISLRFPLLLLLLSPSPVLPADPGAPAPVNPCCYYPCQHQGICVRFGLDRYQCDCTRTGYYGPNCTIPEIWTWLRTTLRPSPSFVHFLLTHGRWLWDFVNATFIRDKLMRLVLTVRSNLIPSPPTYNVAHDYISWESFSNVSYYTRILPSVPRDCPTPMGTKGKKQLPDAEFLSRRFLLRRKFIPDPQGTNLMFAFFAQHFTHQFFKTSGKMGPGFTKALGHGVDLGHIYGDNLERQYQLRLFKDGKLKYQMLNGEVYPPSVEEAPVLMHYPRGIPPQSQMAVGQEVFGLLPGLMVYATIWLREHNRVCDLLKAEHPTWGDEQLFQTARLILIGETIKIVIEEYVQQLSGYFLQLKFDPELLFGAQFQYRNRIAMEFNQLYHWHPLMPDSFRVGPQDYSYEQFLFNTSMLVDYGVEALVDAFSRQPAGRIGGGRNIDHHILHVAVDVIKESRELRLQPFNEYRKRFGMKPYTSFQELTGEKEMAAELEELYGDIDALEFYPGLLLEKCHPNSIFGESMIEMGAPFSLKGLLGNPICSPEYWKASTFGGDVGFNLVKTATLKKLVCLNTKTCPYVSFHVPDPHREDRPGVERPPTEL", "T1 sequence (O62698 whole entry)": "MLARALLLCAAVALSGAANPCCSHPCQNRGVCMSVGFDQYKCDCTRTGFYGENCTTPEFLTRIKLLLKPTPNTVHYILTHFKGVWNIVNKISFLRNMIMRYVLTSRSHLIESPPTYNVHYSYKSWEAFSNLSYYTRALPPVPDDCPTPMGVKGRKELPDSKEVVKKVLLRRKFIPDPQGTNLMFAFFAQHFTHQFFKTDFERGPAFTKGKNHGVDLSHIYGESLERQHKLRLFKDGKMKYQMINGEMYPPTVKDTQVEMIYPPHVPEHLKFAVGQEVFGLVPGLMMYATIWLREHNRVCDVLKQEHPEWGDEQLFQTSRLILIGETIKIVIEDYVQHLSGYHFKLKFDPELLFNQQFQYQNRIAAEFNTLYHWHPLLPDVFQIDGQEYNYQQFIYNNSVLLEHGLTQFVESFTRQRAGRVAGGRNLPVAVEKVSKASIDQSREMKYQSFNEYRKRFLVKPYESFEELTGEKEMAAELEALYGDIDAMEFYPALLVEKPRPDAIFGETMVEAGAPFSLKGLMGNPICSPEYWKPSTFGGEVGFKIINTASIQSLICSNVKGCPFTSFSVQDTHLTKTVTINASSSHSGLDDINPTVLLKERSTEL", "assay": "Tested for its inhibitory activity against PGS (prostaglandin synthetase).", "format": "protein assay"}, "Mus musculus [5]": {"tested_on": "Mus musculus", "assay": "Tested for its antiinflammatory activity in the A-23187 (calcium ionophore) ear edema model.", "format": "functional"}, "[6]": {"biological_target": "T2, Polyunsaturated fatty acid 5-lipoxygenase (Rattus norvegicus, UniProt P12527)", "T2 sequence (P12527 whole entry)": "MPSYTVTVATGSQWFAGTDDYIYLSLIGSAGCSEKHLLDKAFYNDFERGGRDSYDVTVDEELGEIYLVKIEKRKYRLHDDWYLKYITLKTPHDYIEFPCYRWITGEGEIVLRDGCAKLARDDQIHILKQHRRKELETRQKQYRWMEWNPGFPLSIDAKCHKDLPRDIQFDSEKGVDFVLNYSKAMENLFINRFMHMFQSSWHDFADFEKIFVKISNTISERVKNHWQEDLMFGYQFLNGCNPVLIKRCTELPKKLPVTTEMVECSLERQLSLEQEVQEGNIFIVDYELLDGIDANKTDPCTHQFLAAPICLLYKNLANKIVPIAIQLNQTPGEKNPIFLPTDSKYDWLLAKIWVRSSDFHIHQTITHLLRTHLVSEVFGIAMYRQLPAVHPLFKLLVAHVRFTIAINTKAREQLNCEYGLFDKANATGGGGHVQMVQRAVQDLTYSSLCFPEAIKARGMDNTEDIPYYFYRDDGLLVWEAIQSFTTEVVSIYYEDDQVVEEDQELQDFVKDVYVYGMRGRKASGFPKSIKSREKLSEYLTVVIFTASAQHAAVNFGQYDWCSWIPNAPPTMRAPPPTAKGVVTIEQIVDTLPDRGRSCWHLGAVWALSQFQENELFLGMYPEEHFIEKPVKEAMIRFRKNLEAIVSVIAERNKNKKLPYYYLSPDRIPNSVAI", "assay": "Tested for its inhibitory activity against 5-lipoxygenase"}}}
{"smiles": "CC(C)c1ccc2c(c1)CCC1[C@](C)(CNCC3CCCN3)CCC[C@]21C.Cl.Cl", "note": "(stereo partly specified)", "values": [{"measurement": "ED50", "setting": "Mus musculus [1]", "value": 18, "unit": "ug ear-1"}, {"measurement": "IC50", "setting": "[2]", "value": 28, "unit": "µM"}, {"measurement": "ED50", "setting": "Mus musculus [3]", "value": ">100", "unit": "ug ear-1"}, {"measurement": "ED50", "setting": "Mus musculus [4]", "value": 90, "unit": "ug ear-1"}, {"measurement": "IC50", "setting": "Cyclooxygenase", "value": 62, "unit": "µM"}, {"measurement": "ED50", "setting": "Mus musculus [5]", "value": 200, "unit": "ug ear-1"}]}
{"smiles": "CC(C)c1ccc2c(c1)CC[C@H]1C(C)(CN)CCC[C@]21C.Cl", "note": "(stereo partly specified)", "values": [{"measurement": "IC50", "setting": "[6]", "value": 8, "unit": "µM"}, {"measurement": "ED50", "setting": "Mus musculus [1]", "value": 130.7, "unit": "ug ear-1"}, {"measurement": "IC50", "setting": "[2]", "value": 21, "unit": "µM"}, {"measurement": "ED50", "setting": "Mus musculus [3]", "value": ">100", "unit": "ug ear-1"}, {"measurement": "ED50", "setting": "Mus musculus [4]", "value": 19.8, "unit": "ug ear-1"}, {"measurement": "IC50", "setting": "Cyclooxygenase", "value": 71, "unit": "µM"}]}
{"smiles": "CC(C)c1ccc2c(c1)CCC1[C@](C)(CNCc3ccccc3C(=O)O)CCC[C@]21C.Cl", "note": "(stereo partly specified)", "values": [{"measurement": "IC50", "setting": "[6]", "value": "> 25", "unit": "µM"}, {"measurement": "ED50", "setting": "Mus musculus [1]", "value": 16, "unit": "ug ear-1"}, {"measurement": "IC50", "setting": "[2]", "value": 34.5, "unit": "µM"}, {"measurement": "ED50", "setting": "Mus musculus [3]", "value": ">100", "unit": "ug ear-1"}, {"measurement": "ED50", "setting": "Mus musculus [4]", "value": ">100", "unit": "ug ear-1"}, {"measurement": "IC50", "setting": "Cyclooxygenase", "value": 220, "unit": "µM"}, {"measurement": "ED50", "setting": "Mus musculus [5]", "value": 64.1, "unit": "ug ear-1"}]}
{"smiles": "C[C@@H]1C[C@H]2[C@@H]3CCC4=CC(=O)C=C[C@]4(C)[C@@]3(F)[C@@H](O)C[C@]2(C)[C@@]1(O)C(=O)CO", "note": "[DEXAMETHASONE]", "values": [{"measurement": "IC50", "setting": "[6]", "value": 120, "unit": "µM"}, {"measurement": "IC50", "setting": "[2]", "value": "> 750", "unit": "µM"}, {"measurement": "ED50", "setting": "Mus musculus [3]", "value": ">100", "unit": "ug ear-1"}, {"measurement": "ED50", "setting": "Mus musculus [4]", "value": 0.7, "unit": "ug ear-1"}, {"measurement": "ED50", "setting": "Mus musculus [5]", "value": 0.5, "unit": "ug ear-1"}]}
{"smiles": "CC(=O)NC(CCN(C[C@]1(C)CCC[C@]2(C)c3ccc(C(C)C)cc3CCC12)C(C)=O)c1ccc(F)cc1", "note": "(stereo partly specified)", "values": [{"measurement": "IC50", "setting": "[6]", "value": "> 25", "unit": "µM"}, {"measurement": "ED50", "setting": "Mus musculus [1]", "value": 10, "unit": "ug ear-1"}, {"measurement": "IC50", "setting": "[2]", "value": 90.5, "unit": "µM"}, {"measurement": "ED50", "setting": "Mus musculus [3]", "value": ">100", "unit": "ug ear-1"}, {"measurement": "ED50", "setting": "Mus musculus [4]", "value": ">100", "unit": "ug ear-1"}, {"measurement": "IC50", "setting": "Cyclooxygenase", "value": 124, "unit": "µM"}, {"measurement": "ED50", "setting": "Mus musculus [5]", "value": 84.7, "unit": "ug ear-1"}]}
{"smiles": "CC(N)CCCNC[C@]1(C)CCC[C@]2(C)c3ccc(C(C)C)cc3CCC12.Cl.Cl", "note": "(stereo partly specified)", "values": [{"measurement": "IC50", "setting": "[6]", "value": 1.2, "unit": "µM"}, {"measurement": "ED50", "setting": "Mus musculus [1]", "value": 18.8, "unit": "ug ear-1"}, {"measurement": "IC50", "setting": "[2]", "value": 5.4, "unit": "µM"}, {"measurement": "ED50", "setting": "Mus musculus [3]", "value": 100, "unit": "ug ear-1"}, {"measurement": "ED50", "setting": "Mus musculus [4]", "value": ">100", "unit": "ug ear-1"}, {"measurement": "IC50", "setting": "Cyclooxygenase", "value": 390, "unit": "µM"}, {"measurement": "ED50", "setting": "Mus musculus [5]", "value": ">200", "unit": "ug ear-1"}]}
{"smiles": "CCN(CC)CCCC(C)Nc1c2ccc(Cl)cc2nc2ccc(OC)cc12", "note": "(stereo unspecified) [QUINACRINE]", "values": [{"measurement": "ED50", "setting": "Mus musculus [1]", "value": ">100", "unit": "ug ear-1"}, {"measurement": "IC50", "setting": "[2]", "value": 100, "unit": "µM"}, {"measurement": "ED50", "setting": "Mus musculus [3]", "value": ">100", "unit": "ug ear-1"}, {"measurement": "IC50", "setting": "Cyclooxygenase", "value": 32.6, "unit": "µM"}, {"measurement": "ED50", "setting": "Mus musculus [5]", "value": ">100", "unit": "ug ear-1"}]}
{"smiles": "COc1ccc2c(c1)c(CC(=O)O)c(C)n2C(=O)c1ccc(Cl)cc1", "note": "[INDOMETHACIN]", "values": [{"measurement": "IC50", "setting": "[6]", "value": "> 250", "unit": "µM"}, {"measurement": "ED50", "setting": "Mus musculus [3]", "value": 1000, "unit": "ug ear-1"}, {"measurement": "ED50", "setting": "Mus musculus [5]", "value": 254, "unit": "ug ear-1"}]}
